Results as given in patent publication US20240308973A1, “PHOSPHODIESTERASE 3 (PDE3) INHIBITORS” (Zoetis Services LLC, priority 2023, published 2024).

Tests used:
[1] = Dog plasma half-life after oral dose; type: in vivo; conditions: Beagle dogs, oral dose 0.1 mg/kg, plasma over 72 hours, read-out: t½ (hrs), Dog Plasma Compound Half-life (converted)
Description: Lastly, plasma half-life was assessed for a number of compounds in dogs. Beagle dogs were given an oral dose (0.1 mg/kg) of the respective compound accounting for a dose amount of about 1 mg/dog. Pimopendan was administered at a 0.3 mg/kg dose.

[2] = target: dog PDE3A recombinant enzyme (Canis lupus familiaris, UniProt A0A8I3NYE0); experiment: cPDE3A assay (fluorescent polarization); type: biochemical; conditions: canine PDE3A, read-out: cPDE3 Inhibition (IC50)
dog PDE3A recombinant enzyme, sequence (A0A8I3NYE0 1-1135): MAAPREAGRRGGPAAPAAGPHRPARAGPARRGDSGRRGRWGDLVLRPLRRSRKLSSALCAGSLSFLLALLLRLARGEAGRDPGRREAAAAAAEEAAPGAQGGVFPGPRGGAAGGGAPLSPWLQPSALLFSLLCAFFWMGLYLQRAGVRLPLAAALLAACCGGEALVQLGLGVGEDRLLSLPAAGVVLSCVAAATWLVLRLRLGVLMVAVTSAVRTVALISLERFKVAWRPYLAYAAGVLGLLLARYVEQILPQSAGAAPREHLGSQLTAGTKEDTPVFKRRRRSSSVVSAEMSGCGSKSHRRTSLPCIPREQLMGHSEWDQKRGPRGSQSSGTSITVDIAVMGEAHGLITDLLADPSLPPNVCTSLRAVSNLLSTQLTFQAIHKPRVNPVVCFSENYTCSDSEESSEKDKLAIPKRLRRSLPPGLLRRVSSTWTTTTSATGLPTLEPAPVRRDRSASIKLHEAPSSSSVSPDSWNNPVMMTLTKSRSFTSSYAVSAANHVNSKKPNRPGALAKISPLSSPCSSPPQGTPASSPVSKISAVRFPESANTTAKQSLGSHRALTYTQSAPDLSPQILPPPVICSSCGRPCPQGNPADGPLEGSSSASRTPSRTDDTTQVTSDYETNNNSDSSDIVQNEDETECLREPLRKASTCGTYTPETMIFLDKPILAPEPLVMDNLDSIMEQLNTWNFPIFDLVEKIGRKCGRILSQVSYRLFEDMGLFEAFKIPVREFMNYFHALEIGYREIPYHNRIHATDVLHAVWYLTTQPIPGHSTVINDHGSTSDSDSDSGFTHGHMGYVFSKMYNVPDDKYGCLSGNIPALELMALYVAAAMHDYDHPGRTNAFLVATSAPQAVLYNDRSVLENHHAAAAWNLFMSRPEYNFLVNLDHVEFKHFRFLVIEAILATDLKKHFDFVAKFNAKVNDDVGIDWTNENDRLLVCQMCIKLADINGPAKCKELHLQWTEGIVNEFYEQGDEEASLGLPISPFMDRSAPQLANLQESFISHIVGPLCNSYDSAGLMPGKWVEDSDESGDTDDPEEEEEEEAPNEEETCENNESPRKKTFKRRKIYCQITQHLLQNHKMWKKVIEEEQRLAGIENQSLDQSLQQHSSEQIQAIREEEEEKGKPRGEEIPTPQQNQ
Description: cPDE3A Assay (Fluorescent Polarization)
The canine PDE3A assay kit was purchased from BPS Bioscience (San Diego, CA) which included dog PDE3A recombinant enzyme, FAM-cyclic-3′,5′-AMP (20 μM), PDE3 assay buffer, binding agent, binding agent diluent and microtiter 96-well plates. Compounds were initially dissolved in DMSO. The stock concentration was subsequently diluted in cPDE assay buffer (10× stock) and serially diluted to give a concentration response curve starting at 10 μM (≥7 total concentrations). Following the serial dilution, compound solution (0.1% final DMSO) was transferred to an assay plate (96-well) where the remaining canine PDE3A assay reagents were dispensed according to the BPS Bioscience® protocol (catalog #79735) procedure using a final concentration of 5 pg/μL of enzyme. Each compound was evaluated for the inhibition of the canine PDE3A enzyme activity using the measurement of fluorescent polarization changes. The 50% inhibition concentration (IC50) nM was calculated and reported.

| Compound | half-life [1] | IC50 [2] |
| --- | --- | --- |
| CC1CC(=O)NN=C1c1cc2c(c(-c3cccc(F)c3)c1)NC(=O)CC2 (stereo not shown) [Example #12, 8-(3-fluorophenyl)-6-(4-methyl-6-oxo-1,4,5,6-tetrahydropyridazin-3-yl)-3,4-dihydroquinolin-2 (1H)-one] | 10.4 h | 90.9 nM |
| COc1ccc(C2(c3nc4ccc(C5=NNC(=O)CC5C)cc4[nH]3)CC2)cc1 (stereo not shown) [Example #19, 6-(2-(1-(4-methoxyphenyl)cyclopropyl)-1H-benzo[d]imidazol-6-yl)-5-methyl-4,5-dihydropyridazin-3 (2H)-one] | 16 h |  |
| CC1CC(=O)NN=C1c1cc(Br)c2c(c1)C(C)(C)C(=O)N2 (stereo not shown) [Example #23, 7-bromo-3,3-dimethyl-5-(4-methyl-6-oxo-1,4,5,6-tetrahydropyridazin-3-yl)indolin-2-one] | 94 h | 9.1 nM |
| Cc1cc(C2=NNC(=O)SC2C)cc2sc(=O)[nH]c12 (stereo not shown) [Example #55, 4-methyl-6-(6-methyl-2-oxo-3,6-dihydro-2H-1,3,4-thiadiazin-5-yl)benzo[d]thiazol-2 (3H)-one] | 3.2 h | 3.8 nM |
| CC1SC(=O)NN=C1c1cc(Cl)c2[nH]c(=O)sc2c1 (stereo not shown) [Example #56, 4-chloro-6-(6-methyl-2-oxo-3,6-dihydro-2H-1,3,4-thiadiazin-5-yl)benzo[d]thiazol-2 (3H)-one] | 15 h | 3.6 nM |
| CC1SC(=O)NN=C1c1cc(Cl)c2c(c1)C1(CC1)C(=O)N2 (stereo not shown) [Example #58, 5-(7′-chloro-2′-oxospiro[cyclopropane-1,3′-indolin]-5′-yl)-6-methyl-3,6-dihydro-2H-1,3,4-thiadiazin-2-one] | 7 h | 8.4 nM |
| CC1(C)C(=O)Nc2c(Cl)cc(C3=NNC(=O)SC3)cc21 [Example #61, 5-(7-chloro-3,3-dimethyl-2-oxoindolin-5-yl)-3,6-dihydro-2H-1,3,4-thiadiazin-2-one] | 8.5 h |  |
| CC1SC(=O)NN=C1c1cc(Cl)c2c(c1)CC(=O)N2 (stereo not shown) [Example #62, 5-(7-chloro-2-oxoindolin-5-yl)-6-methyl-3,6-dihydro-2H-1,3,4-thiadiazin-2-one] | 5 h |  |
| CC1(C)C(=O)Nc2c(Br)cc(C3=NNC(=O)SC3)cc21 [Example #66, 5-(7-bromo-3,3-dimethyl-2-oxoindolin-5-yl)-3,6-dihydro-2H-1,3,4-thiadiazin-2-one] | 10.2 h | 24.4 nM |
| O=C1Cc2cc(-c3cc(Cl)c4[nH]c(=O)oc4c3)cnc2N1 [Example #84, 4-chloro-6-(2-oxo-2,3-dihydro-1H-pyrrolo[2,3-b]pyridin-5-yl)benzo[d]oxazol-2 (3H)-one] |  | 112 nM |
| CC1(C)C(=O)Nc2c(Cl)cc(-c3cnc4c(c3)CCC(=O)N4)cc21 [Example #87, 6-(7-chloro-3,3-dimethyl-2-oxoindolin-5-yl)-3,4-dihydro-1,8-naphthyridin-2 (1H)-one] |  | 3.4 nM |
| Cc1cc(C2=NNC(=O)CC2)cc2sc(=O)[nH]c12 [compound 15, 4-methyl-6-(6-oxo-1,4,5,6-tetrahydropyridazin-3-yl)benzo[d]thiazol-2 (3H)-one] |  | 17.6 nM |
| CC1CC(=O)NN=C1c1ccc2nc(Nc3ccc(S(C)(=O)=O)cc3)n(C3CC3)c2c1 (stereo not shown) [compound 16, 6-(1-cyclopropyl-2-((4-(methylsulfonyl)phenyl)amino)-1H-benzo[d]imidazol-6-yl)-5-methyl-4,5-dihydropyridazin-3 (2H)-one] |  | 5 nM |
| CC1CC(=O)NN=C1c1cc2c(c(-c3nccs3)c1)NC(=O)CCC2 (stereo not shown) [compound 20, 7-(4-methyl-6-oxo-1,4,5,6-tetrahydropyridazin-3-yl)-9-(thiazol-2-yl)-1,3,4,5-tetrahydro-2H-benzo[b]azepin-2-one] |  | 32.4 nM |
| CC1CC(=O)NN=C1c1ccc2nc(Oc3ccc4ncsc4c3)[nH]c2c1 (stereo not shown) [compound 22, 6-(2-(benzo[d]thiazol-6-yloxy)-1H-benzo[d]imidazol-6-yl)-5-methyl-4,5-dihydropyridazin-3 (2H)-one] |  | 33.1 nM |
| CC1CC(=O)NN=C1c1cc(Br)c2nc(O)ccc2c1 (stereo not shown) [compound 45, 6-(8-bromo-2-hydroxyquinolin-6-yl)-5-methyl-4,5-dihydropyridazin-3 (2H)-one] |  | 3.2 nM |
| COC1CN(c2nc3ccc(C4=NNC(=O)CC4C)cc3s2)C1 (stereo not shown) [compound 49, 6-(2-(3-methoxyazetidin-1-yl)benzo[d]thiazol-6-yl)-5-methyl-4,5-dihydropyridazin-3 (2H)-one] |  | 48.6 nM |
| C[C@@H]1CC(=O)NN=C1c1cc(F)c2c(c1)CC(=O)N2 [compound 54, (R)-7-fluoro-5-(4-methyl-6-oxo-1,4,5,6-tetrahydropyridazin-3-yl)indolin-2-one] |  | 7.4 nM |
| Cc1cc(C2=NNC(=O)S[C@@H]2C)cc2ccc(O)nc12 [compound 60, (R)-5-(2-hydroxy-8-methylquinolin-6-yl)-6-methyl-3,6-dihydro-2H-1,3,4-thiadiazin-2-one] |  | 4.7 nM |
| CC1SC(=O)NN=C1c1cc(Cl)c2c(c1)CCCC(=O)N2 (stereo not shown) [compound 64, 5-(9-chloro-2-oxo-2,3,4,5-tetrahydro-1H-benzo[b]azepin-7-yl)-6-methyl-3,6-dihydro-2H-1,3,4-thiadiazin-2-one] |  | 3.2 nM |
| CC1SC(=O)NN=C1c1cc2c(c(-c3ccccc3)c1)NC(=O)C2 (stereo not shown) [compound 70, 6-methyl-5-(2-oxo-7-phenylindolin-5-yl)-3,6-dihydro-2H-1,3,4-thiadiazin-2-one] |  | 80.7 nM |
| CC1SC(=O)NN=C1c1cc(Cl)c2nc(O)ccc2c1 (stereo not shown) [compound 81, 5-(8-chloro-2-hydroxyquinolin-6-yl)-6-methyl-3,6-dihydro-2H-1,3,4-thiadiazin-2-one] |  | 3.2 nM |
| Cc1cc(C2=NNC(=O)SC2C)cc2c1NC(=O)CC2 (stereo not shown) [compound 83, 6-methyl-5-(8-methyl-2-oxo-1,2,3,4-tetrahydroquinolin-6-yl)-3,6-dihydro-2H-1,3,4-thiadiazin-2-one] |  | 3.2 nM |
| O=c1[nH]nc(-c2cc(Cl)c3[nH]c(=O)sc3c2)s1 [compound 88, 4-chloro-6-(5-oxo-4,5-dihydro-1,3,4-thiadiazol-2-yl)benzo[d]thiazol-2 (3H)-one] |  | 29.2 nM |

More lines, in order of falling IC50 [2], values ahead:

| half-life [1] | IC50 [2] | Compound |
| --- | --- | --- |
|  | 51.3 nM | CC1CC(=O)NN=C1c1cc(Br)c2c(c1)C(C)(C)CC(=O)N2 (stereo not shown) [compound 11, 8-bromo-4,4-dimethyl-6-(4-methyl-6-oxo-1,4,5,6-tetrahydropyridazin-3-yl)-3,4-dihydroquinolin-2 (1H)-one] |
|  | 50.2 nM | COc1ccc(-c2cc(C3=NNC(=O)CC3C)cc3c2NC(=O)CC3)cn1 (stereo not shown) [compound 14, 8-(6-methoxypyridin-3-yl)-6-(4-methyl-6-oxo-1,4,5,6-tetrahydropyridazin-3-yl)-3,4-dihydroquinolin-2 (1H)-one] |
|  | 32.7 nM | CC1CC(=O)NN=C1c1cc(C#N)c2c(c1)CC(=O)N2 (stereo not shown) [compound 53, 5-(4-methyl-6-oxo-1,4,5,6-tetrahydropyridazin-3-yl)-2-oxoindoline-7-carbonitrile] |
|  | 26.4 nM | CC1SC(=O)NN=C1c1cc(Cl)c2c(c1)CS(=O)(=O)N2 (stereo not shown) [compound 82, 5-(7-chloro-2,2-dioxido-1,3-dihydrobenzo[c]isothiazol-5-yl)-6-methyl-3,6-dihydro-2H-1,3,4-thiadiazin-2-one] |
|  | 25.3 nM | CC1(C)C(=O)Nc2c(Cl)cc(-c3n[nH]c(=O)s3)cc21 [compound 89, 5-(7-chloro-3,3-dimethyl-2-oxoindolin-5-yl)-1,3,4-thiadiazol-2 (3H)-one] |
|  | 24.7 nM | O=c1ccc(-c2cc(Cl)c3[nH]c(=O)sc3c2)n[nH]1 [compound 52, 4-chloro-6-(6-oxo-1,6-dihydropyridazin-3-yl)benzo[d]thiazol-2 (3H)-one] |
| 5.2 h | 22.2 nM | CC1(C)C(=O)Nc2c(F)cc(C3=NNC(=O)SC3)cc21 [Example #59, 5-(7-fluoro-3,3-dimethyl-2-oxoindolin-5-yl)-3,6-dihydro-2H-1,3,4-thiadiazin-2-one] |
|  | 18 nM | CC1CC(=O)NN=C1c1cc(C2CC2)c2nc(O)ccc2c1 (stereo not shown) [compound 48, 6-(8-cyclopropyl-2-hydroxyquinolin-6-yl)-5-methyl-4,5-dihydropyridazin-3 (2H)-one] |
| 50 h | 15.7 nM | CC1(C)C(=O)Nc2c(Cl)cc(-c3ccc(=O)[nH]n3)cc21 [Example #25, 7-chloro-3,3-dimethyl-5-(6-oxo-1,6-dihydropyridazin-3-yl)indolin-2-one] |
|  | 10.9 nM | CC1SC(=O)NN=C1c1cc(Br)c2c(c1)CC(=O)N2 (stereo not shown) [compound 69, 5-(7-bromo-2-oxoindolin-5-yl)-6-methyl-3,6-dihydro-2H-1,3,4-thiadiazin-2-one] |
|  | 7.3 nM | CC1CC(=O)NN=C1c1ccc2nc(Nc3ccc4ncsc4c3)n(C)c2c1 (stereo not shown) [compound 10, 6-(2-(benzo[d]thiazol-6-ylamino)-1-methyl-1H-benzo[d]imidazol-6-yl)-5-methyl-4,5-dihydropyridazin-3 (2H)-one] |
| 50 h | 5.4 nM | CC1CC(=O)NN=C1c1cc(Cl)c2c(c1)C(C)(C)C(=O)N2 (racemic) [Example #24, 7-chloro-3,3-dimethyl-5-(4-methyl-6-oxo-1,4,5,6-tetrahydropyridazin-3-yl)indolin-2-one] |
|  | 3.2 nM | CC1CC(=O)NN=C1c1cc(Cl)c2[nH]c(=O)sc2c1 (stereo not shown) [compound 29, 4-chloro-6-(4-methyl-6-oxo-1,4,5,6-tetrahydropyridazin-3-yl)benzo[d]thiazol-2 (3H)-one] |
